From US9770026B2, “Substituted pyrimidine compound and uses thereof” (Shenyang Sinochem Agrochemicals R&D Co., Ltd., priority 2012, dated 2017)

How the values were obtained:
[1] = tested on: Diamond back moth; experiment: insecticidal activity against diamond back moth, airbrush spray; assay type: in vivo; conditions: for control (test results against diamond back moth): mortality after 72 hrs
Outline: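 Airbrush leaf-disc spray test: both faces of 2 cm cabbage discs received 0.5 ml of test solution at 0.7 kg/cm^2. Solutions were made in acetone:methanol (1:1) and brought to concentration with 0.1% Tween 80 in water. Ten second-instar larvae per disc, triplicates, were held at 25° C and 60˜70% R.H., with mortality recorded at 72 hrs.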

[2] = tested on: armyworm; experiment: bioactivity test against armyworm, airbrush spray; assay type: in vivo; conditions: for control (test results against armyworm): mortality after 72 h
[3] = tested on: Green peach aphids (Myzus Persicae Sulzer); experiment: bioactivity test against green peach aphid, airbrush foliar spray; assay type: in vivo; conditions: for Insecticidal activity against peach aphid (%): contrastive test; for control (test results against green peach aphid): death rate after 48 hrs
Outline: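 Death rate was scored at 48 hrs, held at 25±1 C and 60±5% RH, following airbrush foliar spray (0.5 mL, 10 psi) onto cabbage leaf discs bearing about 15-30 aphids. Test solutions: compound dissolved in 1:1 acetone:methanol, brought to concentration with 0.1% tween 80 water.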

[4] = tested on: carmine spider mite; experiment: bioactivity test against carmine spider mite, airbrush spray; assay type: in vivo; conditions: for control against carmine spider mite: mortality after 72 hrs
Outline: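 Broadbean seedlings infested with adult mites were sprayed with compound (acetone/methanol stock diluted in 0.1% Tween 80 water) by airbrush at 0.7 kg/cm^2, 0.5 ml. Three replicates were run. Mortality was scored after 72 hrs.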

[5] = tested on: corn rust; experiment: protectant activity in vivo against corn rust
[6] = tested on: wheat powdery mildew; experiment: protectant activity in vivo against wheat powdery mildew; conditions: for control effect against wheat powdery mildew (%): protectant activity
[7] = tested on: cucumber downy mildew; experiment: protectant activity in vivo against cucumber downy mildew

Structure (SMILES): Cc1ncnc(NCCc2ccc(Oc3ccc(C#N)cc3F)cc2)c1Cl [II-204]
- Insecticidal activity against diamond back moth (%) ([1]; 10 mg/L): 20%
- Insecticidal activity against diamond back moth (%) ([1]; 100 mg/L): 100%
- Insecticidal activity against diamond back moth (%) ([1]; 600 mg/L): 100%
- control (test results against diamond back moth) ([1]; 100 ppm): 100%
- control (test results against diamond back moth) ([1]; 600 ppm): 100%
- Insecticidal activity against armyworm (%) ([2]; 10 mg/L): 47%
- Insecticidal activity against armyworm (%) ([2]; 100 mg/L): 100%
- Insecticidal activity against armyworm (%) ([2]; 600 mg/L): 100%
- control (test results against armyworm) ([2]; 100 ppm): 100%
- control (test results against armyworm) ([2]; 600 ppm): 100%
- Insecticidal activity against peach aphid (%) ([3]; 1.25 mg/L): 60%
- Insecticidal activity against peach aphid (%) ([3]; 2.5 mg/L): 97%
- Insecticidal activity against peach aphid (%) ([3]; 5 mg/L): 100%
- Insecticidal activity against peach aphid (%) ([3]; 10 mg/L): 100%
- Insecticidal activity against peach aphid (%) ([3]; 100 mg/L): 100%
- Insecticidal activity against peach aphid (%) ([3]; 600 mg/L): 100%
- control (test results against green peach aphid) ([3]; 5 ppm): 100%
- control (test results against green peach aphid) ([3]; 10 ppm): 100%
- control (test results against green peach aphid) ([3]; 100 ppm): 100%
- control (test results against green peach aphid) ([3]; 600 ppm): 100%
- Insecticidal activity against carmine spider mite (% ) ([4]; 2.5 mg/L): 60%
- Insecticidal activity against carmine spider mite (% ) ([4]; 5 mg/L): 80%
- Insecticidal activity against carmine spider mite (% ) ([4]; 10 mg/L, contrastive test): 100%
- Insecticidal activity against carmine spider mite (% ) ([4]; 100 mg/L, contrastive test): 100%
- Insecticidal activity against carmine spider mite (% ) ([4]; 600 mg/L, contrastive test): 100%
- control against carmine spider mite ([4]; 10 ppm): 100%
- control against carmine spider mite ([4]; 100 ppm): 100%
- control against carmine spider mite ([4]; 600 ppm): 100%
- protectant activity against corn rust in vivo ([5]; 25 ppm): 100%
- protectant activity against corn rust in vivo ([5]; 100 ppm): 100%
- protectant activity against corn rust in vivo ([5]; 400 ppm): 100%
- control effect against wheat powdery mildew (%) ([6]; 6.25 mg/L): 100%
- control effect against wheat powdery mildew (%) ([6]; 25 mg/L): 100%
- control effect against wheat powdery mildew (%) ([6]; 100 mg/L): 100%
- control effect against wheat powdery mildew (%) ([6]; 400 mg/L): 100%
- protectant activity against wheat powdery mildew in vivo ([6]; 6.25 ppm): 100%
- protectant activity against wheat powdery mildew in vivo ([6]; 25 ppm): 100%
- protectant activity against wheat powdery mildew in vivo ([6]; 100 ppm): 100%
- protectant activity against wheat powdery mildew in vivo ([6]; 400 ppm): 100%
- protectant activity against cucumber downy mildew in vivo ([7]; 25 ppm): 100%
- protectant activity against cucumber downy mildew in vivo ([7]; 50 ppm): 100%
- protectant activity against cucumber downy mildew in vivo ([7]; 100 ppm): 100%
- protectant activity against cucumber downy mildew in vivo ([7]; 400 ppm): 100%
